Test results from US20250120425A1, “Combinations of Ketogenic Supplements for Rapid and Sustained Blood Ketone Levels in Dieters and Patients” (priority 2021, published 2025).

Key:
[1] = Blood βHB levels after single oral administration of ketogenic compounds in human subjects
Experimental: Table 1 is data depicting blood BHB levels of 4 male subjects with an average weight of 76 kg in a fasted state that received 5.5 grams of buffered (D) βHB together with 4.5 grams of (D)-1,3BD, 328 mg of Na+ in the form of NaHCO3 and 500 mg of K+ in the form of KHCO3, at 15, 30, 45 and 60 minutes after oral administration. […] That compound is an ester formed by reacting (D)-3-hydroxybutyrate and (D)-1,3-butanediol.
Table 2 is data depicting blood βHB levels after a single administration of 5.5 grams of buffered (D) βHB together with 4.5 grams of (D)-1,3BD, 328 mg of Na+ in the form of NaHCO3 and 500 mg of K+ in the form of KHCO3 in a fasted 70 kg subject who was following a strict ketogenic diet and keto adapted due at 15, 30, 45 and 60 minutes after oral administration.
Table 3 is data depicting blood BHB after a single administration of 10 grams of buffered (D) βHB acid with 328 mg of Na+ in the form of NaHCO3 and 500 mg of K+ in the form of KHCO3 in a fasted 75 kg subject and two fasted 65 kg female subjects at 15, 30, 45, 60 and 90 minutes after administration.
FIG. […] The total dose of 60 grams was administered 3 hours after a meal. […] Those esters are typically administered after an overnight fast on an empty stomach. […] FIG. 5 also includes blood samples for 2 esters of (D)-BHB. The first was from HVMN and consisted of […] of ester (2 commercially available 30 gram bottles). The second was the ester KE4 from KetoneAid and contained 60 net grams (2 commercially available 30 gram bottles). The choice of 60 grams of active ester was based on dosing protocols for elite athletes in the paper “Nutritional Ketosis Alters Fuel Preference and Thereby Endurance in Elite Athletes” Cell Metabolism Cox et al. 2016.

[2] = human, in vivo; cited from earlier work

## C[C@@H](O)CC(=O)O [10 g HB, (D)-beta-hydroxybutyrate]
[1]; human, in vivo
  effectiveness at raising blood levels of (D)-βHB, pure (D) form versus racemic: more than twice as effective

## CC(O)CCO (stereo not shown) [(D)-1,3BD, (D)-1,3-butanediol]
[1]; 10 grams, 75 kg person
  serum level of (D)-beta-hydroxybutyrate reached: 0.9 mmol
[1]; (D) enantiomer compared with the racemic form
  effectiveness at raising serum levels of (D)-beta-hydroxybutyrate: ~3 times
[1]; Table 4: 10 grams single administration, 72 kg fasted subject, T + 0
  mean blood BHB level: 0.0
[1]; Table 4: 10 grams, 72 kg fasted male, +15 Min
  mean blood BHB level: 0.6
[1]; Table 4: 10 grams, 72 kg fasted male, +30 Min
  mean blood BHB level: 0.9
[1]; Table 4: 10 grams, 72 kg fasted male, +45 Min
  mean blood BHB level: 0.9
[1]; Table 4: 10 grams, 72 kg fasted male, +60 Min
  mean blood BHB level: 0.5
[1]; Table 4: 10 grams, 72 kg fasted male, +90 Min
  mean blood BHB level: 0.3
[1]; for any given weight
  effectiveness at raising blood levels of (D)-βHB, pure (D) form versus racemic: more than twice as effective
[1]; gram to gram basis
  ketogenic power compared with the free acid (D)-βHB: the liver. On a gram to gram basis, it is a more powerful
  ketogenic power relative to the ketone ester: ~90% as powerful as the previously mentioned ketone ester

## C[C@@H](O)CCOC(=O)C[C@@H](C)O [(D)-3-hydroxybutyl-(D)-3-hydroxybutyrate]
[2]
  average serum increase for βHB: 1.0 mmol/10 grams
